The term IC50 denotes the point on the concentration scale where inhibition reaches its midpoint.

SMILES strings stand for the structures. Like-named read-outs stand apart in the source and are kept apart here.

The target of experiment [1] is Cys242 in human PIK3CA (157-299) (Homo sapiens (Human), UniProt P42336). The experiment can be described thus: Covalent modification assay using MALDI-TOF MS. It is filed as biochemical. The settings on record: 4 h reaction time point. The gist of the method: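 PIK3CA (157-299) at 3.33 μM or 1 μM in 20 mM HEPES, 150 mM NaCl, 2 mM MgCl2, pH 7.3 was incubated with compound (from 10 mM DMSO stocks) in the dark at room temperature for 15 min, 30 min, 2 h or 4 h. Linear-mode MALDI-TOF peak heights gave percent modification.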

Experiment [2] deals with pAKT in BT474 cells. The experiment can be described thus: Cell-based pAKT HTRF assay in BT474 cells. The settings on record: BT474 cells, 4 hr incubation, read-out: pAKT inhibition IC50 in BT474 cells. The method in brief:
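BT474 cells in DMEM/10% FBS were treated the day after seeding with a 9-point, 3-fold compound series from 3 μM (0.25% DMSO) for 4 hr. Lysates were mixed with d2 and Eu cryptate anti-pAKT antibodies and incubated 4-24 h at room temperature. HTRF was read with excitation at 320 nm and emission at 615 nm.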
For orientation: In TR-FRET formats the signal depends on donor and acceptor labels being close together.

Setting [3] is: 3.33 μM protein target, 1:7.5 protein to compound ratio (compounds 1-852).
The mark [4] stands for this setting: 1 μM protein target, 1:5 protein to compound ratio (compounds 853-1279).
Where [5] appears, read: Homo sapiens, BT-474, Compounds 10-999.

Cys242 in human PIK3CA (157-299), sequence (P42336 157-299): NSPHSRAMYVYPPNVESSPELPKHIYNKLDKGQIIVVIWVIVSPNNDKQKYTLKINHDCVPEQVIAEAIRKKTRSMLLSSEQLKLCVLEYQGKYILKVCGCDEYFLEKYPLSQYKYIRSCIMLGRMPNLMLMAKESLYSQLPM

As for `C=CC(=O)N1Cc2cc(-c3nc(-c4cnnc(C)c4)c4ccsc4c3-c3c(F)cc(F)cc3OCCO)nn2C(C)C1` (centres unmarked) [Compound 787], in experiment [1] (setting [3]), the “% of modification” value was “D (percent of modification <25%)”. The IC50 in experiment [2] (Compounds 10-999) is 0.1 to 1 µM.

For `C=CC(=O)N1Cc2cc(-c3nc(-c4cnn(CC(F)F)c4)c4ccsc4c3-c3c(F)cc(F)cc3OCCOC)nn2C[C@H]1C` [Compound 727], the “% of modification” value in experiment [1] (setting [3]) was “A (percent of modification of PIK3CA protein ≥75%)”. In addition, the IC50 in experiment [2] (Compounds 10-999) was below 0.1 µM.

Regarding `C=CC(=O)N1CCc2ncc(-c3nc(-c4ccc5nn(C)cc5c4)c4ccsc4c3-c3c(F)cc(F)cc3OCCOC)cc2C1` [Compound 945], the “% of modification” value in experiment [1] (setting [4]) is recorded as “A (percent of modification of PIK3CA protein ≥75%)”. In experiment [2] (Compounds 10-999), the IC50 was below 0.1 µM.

On to `C=CC(=O)N1CCn2nc(-c3nc(-c4ccc5c(c4)CCN(C)C5)c4ccsc4c3-c3ccc(F)cc3OCCOC)cc2C1` [Compound 242], for which the “% of modification” value in experiment [1] (setting [3]) is reported as “A (percent of modification of PIK3CA protein ≥75%)”. For the same molecule, the IC50 in experiment [2] (Compounds 10-999) is below 0.1 µM.

For `C=CC(=O)N1CCn2nc(-c3nc(-c4ccc5ncn(C)c5c4)c4ccsc4c3-c3c(F)cc(F)cc3OC[C@@H](C)O)cc2[C@@H]1C` [Compound 647], the “% of modification” value in experiment [1] (setting [3]) is listed as “A (percent of modification of PIK3CA protein ≥75%)”. Also, in experiment [2] (Compounds 10-999), the IC50 is below 0.1 µM.

Take `C=CC(=O)N1CCc2nc(-c3nc(-c4ccc5c(c4)CCN(C)C5)c4ccsc4c3-c3c(F)cc(F)cc3OC(C)C)sc2C1` [Compound 312]: in experiment [1] (setting [3]), the “% of modification” value is on record as “A (percent of modification of PIK3CA protein ≥75%)”. Moreover, in experiment [2] (Compounds 10-999), the IC50 is below 0.1 µM.

As to `C=CC(=O)N1CCn2nc(-c3nc(-c4ccc5c(c4)CCNC5=O)c4ccsc4c3-c3ccc(F)cc3OC3CC3)cc2C1` [Compound 302], the “% of modification” value in experiment [1] (setting [3]) is given as “A (percent of modification of PIK3CA protein ≥75%)”. Besides, the IC50 in experiment [2] (Compounds 10-999) was below 0.1 µM.

For the molecule `C=CC(=O)N1CCn2nc(-c3nc(-c4ccc(OCCN(C)C)c(F)c4)c4ccsc4c3-c3c(F)cc(F)cc3OCCOC)cc2C1C` (centres unmarked) [Compound 1077], the “% of modification” value in experiment [1] (setting [4]) is “A (percent of modification of PIK3CA protein ≥75%)”. The IC50 in experiment [2] (Compounds 1000-1279) is below 0.1 µM.

As to `C=CC(=O)N1CCn2nc(-c3nc(-c4ccc5c(c4)CCNC5=O)c4ccsc4c3-c3c(F)cc(F)cc3OCCO)cc2[C@H]1C` [Compound 876, 6-((S)-6-((R)-5-acryloyl-4-methyl-4,5,6,7-tetrahydropyrazolo[1,5-a]pyrazin-2-yl)-7-(2,4-difluoro-6-(2-hydroxyethoxy)phenyl)thieno[3,2-c]pyridin-4-yl)-3,4-dihydroisoquinolin-1(2H)-one], in experiment [1] (setting [4]), the “% of modification” value was “A (percent of modification of PIK3CA protein ≥75%)”. Also, in experiment [2] (setting [5]), the IC50 is below 0.1 µM.

Consider `C=CC(=O)N1CCc2ccc(-c3nc(-c4cn(C)cn4)c4ccsc4c3-c3c(F)cc(F)cc3OCCO)cc2C1` (single isomer, unassigned) [Compound 1001], for which the “% of modification” value in experiment [1] (setting [4]) is reported as “D (percent of modification <25%)”. For the same molecule, in experiment [2] (Compounds 1000-1279), the IC50 was in the range of 0.1 to 1 µM.

In the case of `C=CC(=O)N1CCc2nc(-c3nc(-c4ccc(C5(N)COC5)cc4)c4ccsc4c3-c3c(F)cc(F)cc3OCCOC)sc2C1` [Compound 426], the “% of modification” value in experiment [1] (setting [3]) was “A (percent of modification of PIK3CA protein ≥75%)”. Moreover, in experiment [2] (Compounds 10-999), the half-inhibitory concentration (IC50) is below 0.1 µM.

Consider `C=CC(=O)N1CCC(n2cc(-c3nc(-c4ccc5c(c4)CS(=O)(=O)C5)c4ccsc4c3-c3ccc(F)cc3OCCOC)cn2)CC1` [Compound 61], for which the “% of modification” value in experiment [1] (setting [3]) is recorded as “A (percent of modification of PIK3CA protein ≥75%)”. Also, in experiment [2] (Compounds 10-999), the IC50 is below 0.1 µM.

Take `C=CC(=O)N1CCc2ncc(-c3nc(N4CCC5(CC4)COC5)c4ccsc4c3-c3c(F)cc(F)cc3OC(C)C)cc2C1` [Compound 423]: the “% of modification” value in experiment [1] (setting [3]) is recorded as “A (percent of modification of PIK3CA protein ≥75%)”. Besides, the IC50 in experiment [2] (Compounds 10-999) was in the range of 0.1 to 1 µM.

`C=CC(=O)N1CCn2nc(-c3nc(-c4ccc(OCCN(C)C)cc4)c4ccsc4c3-c3c(F)cc(F)cc3OCCOC)cc2C1C` (centres unmarked) [Compound 993]: the “% of modification” value in experiment [1] (setting [4]) is “A (percent of modification of PIK3CA protein ≥75%)”. The IC50 in experiment [2] (Compounds 10-999) is below 0.1 µM.

`C=CC(=O)N1CCn2nc(-c3nc(-c4ccc5c(c4)CCC5N(C)C)c4ccsc4c3-c3c(F)cc(F)cc3OCCOC)cc2C1C` (centres unmarked) [Compound 1155]: the “% of modification” value in experiment [1] (setting [4]) was “A (percent of modification of PIK3CA protein ≥75%)”. Besides, the IC50 in experiment [2] (Compounds 1000-1279) is below 0.1 µM.

For `C=CC(=O)N1Cc2cc(-c3nc(-c4ccn(C)n4)c4ccsc4c3-c3c(F)cc(F)cc3OCCOC)nn2C[C@H]1C` [Compound 722], the “% of modification” value in experiment [1] (setting [3]) is on record as “A (percent of modification of PIK3CA protein ≥75%)”. Further, the IC50 in experiment [2] (Compounds 10-999) was below 0.1 µM.

In the case of `C=C(F)C(=O)N1CCn2nc(-c3nc(-c4ccc5c(c4)CCNC5=O)c4ccsc4c3-c3ccc(F)cc3OC(C)C)cc2C1` [Compound 258, 6-[7-(4-fluoro-2-isopropoxy-phenyl)-6-[5-(2-fluoroprop-2-enoyl)-6,7-dihydro-4H-pyrazolo[1,5-a]pyrazin-2-yl]thieno[3,2-c]pyridin-4-yl]-3,4-dihydro-2H-isoquinolin-1-one], the “% of modification” value in experiment [1] (setting [3]) is “B (50%<percent of modification <75%)”. The IC50 in experiment [2] (setting [5]) is below 0.1 µM.

Turning to `C=CC(=O)N1CCc2cc(-c3nc(-c4ccc5c(cnn5C)c4)c4ccsc4c3-c3c(F)cc(F)cc3OCCO)nn2CC1` [Compound 1207, (S)-1-(2-(7-(2,4-difluoro-6-(2-hydroxyethoxy)phenyl)-4-(1-methyl-1H-indazol-5-yl)thieno[3,2-c]pyridin-6-yl)-4,5,7,8-tetrahydro-6H-pyrazolo[1,5-d][1,4]diazepin-6-yl)prop-2-en-1-one], the “% of modification” value in experiment [1] (setting [4]) is listed as “A (percent of modification of PIK3CA protein ≥75%)”. Further, in experiment [2] (Homo sapiens, BT-474, Compounds 1000-1279), the IC50 is below 0.1 µM.

For `C=CC(=O)N1CCn2nc(-c3nc(-c4ccc5c(c4)CNC(=O)C5)c4ccsc4c3-c3c(F)cc(F)cc3OCCOC)cc2C1C` (centres unmarked) [Compound 926], the “% of modification” value in experiment [1] (setting [4]) is given as “A (percent of modification of PIK3CA protein ≥75%)”. Also, the half-maximal inhibitory concentration (IC50) in experiment [2] (Compounds 10-999) is below 0.1 µM.

In the case of `C=CC(=O)N1CCc2nc(-c3nc(-c4cnn(C)c4)c4ccsc4c3-c3ccc(F)cc3OCC3CNC(=O)C3)sc2C1` (centres unmarked) [Compound 187], the “% of modification” value in experiment [1] (setting [3]) is reported as “A (percent of modification of PIK3CA protein ≥75%)”. The IC50 in experiment [2] (Compounds 10-999) was below 0.1 µM.

Regarding `C=CC(=O)N1Cc2cc(-c3nc(-c4ccc5ncn(C)c5c4)c4ccsc4c3-c3c(F)cc(F)cc3O[C@H](C)CO)nn2C[C@H]1C` [Compound 611], the “% of modification” value in experiment [1] (setting [3]) is given as “D (percent of modification <25%)”. The IC50 in experiment [2] (Compounds 10-999) lay within 0.1 to 1 µM.

As for `C=CC(=O)N1CC(n2cc(-c3nc(-c4ccc5c(c4)CCNC5)c4ccsc4c3-c3ccc(F)cc3OCCOC)ncc2=O)C1` [Compound 210], in experiment [1] (setting [3]), the “% of modification” value is “A (percent of modification of PIK3CA protein ≥75%)”. Also, the IC50 in experiment [2] (Compounds 10-999) is below 0.1 µM.

With `C=CC(=O)N1CCn2nc(-c3nc(-c4ccc5c(c4)CCN(C(C)C)C5)c4ccsc4c3-c3ccc(F)cc3OC)cc2C1` [Compound 263], the “% of modification” value in experiment [1] (setting [3]) is “A (percent of modification of PIK3CA protein ≥75%)”. Moreover, the IC50 in experiment [2] (Compounds 10-999) is below 0.1 µM.

In the case of `C=CC(=O)N1CC(n2cc(-c3nc(-c4ccc5c(c4)CCNC5)c4ccsc4c3-c3cnn(C)c3)cn2)C1` [Compound 90], the “% of modification” value in experiment [1] (setting [3]) was “D (percent of modification <25%)”. Further, the concentration for half-maximal inhibition (IC50) in experiment [2] (Compounds 10-999) was above 3 µM.

In the case of `C=CC(=O)N1CCc2nc(-c3nc(-c4cnc5c(c4)CNC(=O)C5)c4ccsc4c3-c3c(F)cc(F)cc3OCCOC)sc2C1` [Compound 446], in experiment [1] (setting [3]), the “% of modification” value is listed as “A (percent of modification of PIK3CA protein ≥75%)”. Also, the IC50 in experiment [2] (Compounds 10-999) is below 0.1 µM.
